# In patent US9328122B2, “7-substituted Hanfangichin B derivative, and preparation method and use thereof” (HANGZHOU BENSHENG PHARMACEUTICAL CO., LTD., priority 2012, dated 2016):
# Columns and labels:
# [1] = system: CaEs-17 (esophageal cancer) cells; experiment: MTT cell growth inhibition, solid tumor cells; type: cell-based, human; settings: for IC50 / IC90: Homo sapiens, CaEs17, CaEs-17, 72 h, MTT; for IC50: read-out: IC50; for IC90: read-out: IC90
# How it was run: (§1)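 After 72 h at 37 °C/5% CO2 with compounds at a range of concentrations, viable cells were quantified by MTT; plating was 6000 cells per well with 24 h pre-culture.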
# [2] = system: CNE (nasopharyngeal carcinoma) cells; experiment: MTT cell growth inhibition, solid tumor cells; type: cell-based, human; settings: for IC50 / IC90: Homo sapiens, CNE, 72 h, MTT; for IC50: read-out: IC50; for IC90: read-out: IC90
# How it was run: as §1
# [3] = system: PANC-1 (pancreatic cancer) cells; experiment: MTT cell growth inhibition, solid tumor cells; type: cell-based, human; settings: for IC50 / IC90: Homo sapiens, PANC-1, 72 h, MTT; for IC50: read-out: IC50; for IC90: read-out: IC90
# How it was run: as §1
# [4] = system: SK-OV-3 (ovarian cancer) cells; experiment: MTT cell growth inhibition, solid tumor cells; type: cell-based, human; settings: Homo sapiens, SK-OV-3, 72 h, MTT; for IC50: read-out: IC50; for IC90: read-out: IC90
# How it was run: as §1
# [5] = system: PC-3 (prostate cancer) cells; experiment: MTT cell growth inhibition, solid tumor cells; type: cell-based, human; settings: Homo sapiens, PC-3, 72 h, MTT; for IC50: read-out: IC50; for IC90: read-out: IC90
# How it was run: as §1
# [6] = system: RPMI 8226 (multiple myeloma) cells; experiment: MTT cell growth inhibition, multiple myeloma cells; type: cell-based, human; settings: Homo sapiens, RPMI 8226, 72 h, MTT; for IC50: read-out: IC50; for IC90: read-out: IC90
# How it was run: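 Viable-cell readout by MTT after 72 h exposure (37° C, 5% CO2) of RPMI 8226 cells to a range of compound concentrations, added one day post-seeding. Cells were seeded at 6000 per well in RPMI-1640 containing 10% FBS.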
# tumor = experiment: Antitumor activity compared with fangchinoline, overall statement; type: cell-based; settings: tumor type not specified
# [7] = system: A549 (human lung cancer) cells; experiment: MTT cell growth inhibition, solid tumor cells; type: cell-based; settings: Homo sapiens, A549, 72 h, MTT; for IC50: read-out: IC50; for IC90: read-out: IC90
# How it was run: as §1
# [8] = system: RKO (human colon adenocarcinoma) cells; experiment: MTT cell growth inhibition, solid tumor cells; type: cell-based; settings: Homo sapiens, RKO, 72 h, MTT; for IC50: read-out: IC50; for IC90: read-out: IC90
# How it was run: as §1
# [9] = system: Hela (human cervical cancer) cells; experiment: MTT cell growth inhibition, solid tumor cells; type: cell-based; settings: Homo sapiens, Hela, 72 h, MTT; for IC50: read-out: IC50; for IC90: read-out: IC90
# How it was run: as §1
# [10] = system: MGC-803 (human gastric cancer) cells; experiment: MTT cell growth inhibition, solid tumor cells; type: cell-based; settings: MGC-803, 72 h, MTT; for IC50: read-out: IC50; for IC90: read-out: IC90
# How it was run: as §1
# [11] = system: MG-63 (osteosarcoma) cells; experiment: MTT cell growth inhibition, solid tumor cells; type: cell-based; settings: Homo sapiens, MG-63, 72 h, MTT; for IC50: read-out: IC50; for IC90: read-out: IC90
# How it was run: as §1
# [12] = system: Hep G2 (human liver cancer) cells; experiment: MTT cell growth inhibition, solid tumor cells; type: cell-based; settings: for IC50 / IC90: Homo sapiens, HepG2, Hep G2, 72 h, MTT; for IC50: read-out: IC50; for IC90: read-out: IC90
# How it was run: as §1
# [13] = system: U87-MG (malignant glioma) cells; experiment: MTT cell growth inhibition, solid tumor cells; type: cell-based; settings: Homo sapiens, U-87 MG, U87-MG, 72 h, MTT; for IC50: read-out: IC50; for IC90: read-out: IC90
# How it was run: as §1
# [14] = system: Becap-37 (human breast cancer) cells; experiment: MTT cell growth inhibition, solid tumor cells; type: cell-based; settings: for IC50 / IC90: Homo sapiens, Becap-37, 72 h, MTT; for IC50: read-out: IC50; for IC90: read-out: IC90
# How it was run: as §1
# [15] = system: Hep-2 (laryngeal carcinoma) cells; experiment: MTT cell growth inhibition, solid tumor cells; type: cell-based; settings: Homo sapiens, Hep-2, 72 h, MTT; for IC50: read-out: IC50; for IC90: read-out: IC90
# How it was run: as §1
# [16] = system: NB4 (acute promyelocytic leukemia) cells; experiment: MTT cell growth inhibition, leukemia cells; type: cell-based; settings: Homo sapiens, NB4, 72 h, MTT; for IC50: read-out: IC50; for IC90: read-out: IC90
# How it was run: (§2)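 Seed 6000 cells/well in RPMI-1640/10% FBS; next day add derivatives at varied concentrations and mix; incubate 72 h, 37° C., 5% CO2; measure viable cells by MTT.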
# [17] = system: K562/ADR (K562adr, drug-resistant chronic myeloid leukemia) cells; experiment: MTT cell growth inhibition, leukemia cells; type: cell-based; settings: Homo sapiens, K562/ADR, 72 h, MTT; for IC50: read-out: IC50; for IC90: read-out: IC90
# How it was run: as §2
# [18] = relative to fangchinoline, Table 2
SMILES,IC50 [1],IC90 [1],IC50 [2],IC90 [2],IC50 [3],IC90 [3],IC50 [4],IC90 [4],IC50 [5],IC90 [5],IC50 [6],IC90 [6],antitumor activity compared with that of fangchinoline (tumor),IC50 [7],IC90 [7],IC50 [8],IC90 [8],IC50 [9],IC90 [9],IC50 [10],other results
COc1ccc2cc1Oc1ccc(cc1)C[C@H]1c3cc(c(OC)cc3CCN1C)Oc1c(OCC(O)CNCC3CC3)c(OC)cc3c1[C@H](C2)N(C)CC3 (some centres unmarked) [BS-FC-405],0.49 mg/L,1.95 mg/L,0.8 mg/L,1.7 mg/L,1.14 mg/L,3.34 mg/L,1.54 mg/L,3.5 mg/L,2.53 mg/L,3.69 mg/L,0.05 mg/L,0.44 mg/L,significantly superior,1.94 mg/L,5.89 mg/L,0.46 mg/L,0.92 mg/L,1.25 mg/L,2 mg/L,0.88 mg/L,"anti-CaEs-17 activity increase over fangchinoline [1, 18]: ~4 fold; anti-CNE activity increase over fangchinoline [2, 18]: ~3 fold; anti-PANC-1 activity increase over fangchinoline [3, 18]: ~3 fold; IC90 [10]: 3.59 mg/L; IC50 [11]: 0.96 mg/L; IC90 [11]: 1.7 mg/L; IC50 [12]: 0.71 mg/L; IC90 [12]: 1.7 mg/L; anti-Hep G2 activity increase over fangchinoline [12, 18]: ~3 fold; IC50 [13]: 0.7 mg/L; IC90 [13]: 1.41 mg/L; IC50 [14]: 0.74 mg/L; IC90 [14]: 1.88 mg/L; anti-Becap37 activity increase over fangchinoline [14, 18]: ~3 fold; IC50 [15]: 1.67 mg/L; IC90 [15]: 4.81 mg/L; IC50 [16]: 0.47 mg/L; IC90 [16]: 0.95 mg/L; IC50 [17]: 0.6 mg/L; IC90 [17]: 1.73 mg/L"
C=CCOc1c(OC)cc2c3c1Oc1cc4c(cc1OC)CCN(C)[C@H]4Cc1ccc(cc1)Oc1cc(ccc1OC)C[C@@H]3N(C)CC2 [BS-FC-213],1.68 mg/L,9.16 mg/L,2.7 mg/L,5.6 mg/L,3.46 mg/L,10.4 mg/L,5 mg/L,11.8 mg/L,3.24 mg/L,7.37 mg/L,0.12 mg/L,0.5 mg/L,significantly superior,2.19 mg/L,4.92 mg/L,1.58 mg/L,3.46 mg/L,1.68 mg/L,3.89 mg/L,1.49 mg/L,IC90 [10]: 6.02 mg/L; IC50 [11]: 2.4 mg/L; IC90 [11]: 3.8 mg/L; IC50 [12]: 2.12 mg/L; IC90 [12]: 5.92 mg/L; IC50 [13]: 1.85 mg/L; IC90 [13]: 9.23 mg/L; IC50 [14]: 2.54 mg/L; IC90 [14]: 5.29 mg/L; IC50 [15]: 3.63 mg/L; IC90 [15]: 9.9 mg/L; IC50 [16]: 0.66 mg/L; IC90 [16]: 2.32 mg/L; IC50 [17]: 0.38 mg/L; IC90 [17]: 1.72 mg/L
COc1ccc2cc1Oc1ccc(cc1)C[C@H]1c3cc(c(OC)cc3CCN1C)Oc1c(OS(=O)(=O)c3ccccc3)c(OC)cc3c1[C@H](C2)N(C)CC3 [BS-FC-104],2 mg/L,7.42 mg/L,2.5 mg/L,4.9 mg/L,2.01 mg/L,10.8 mg/L,1.88 mg/L,3.79 mg/L,2.5 mg/L,5.51 mg/L,0.12 mg/L,0.5 mg/L,significantly superior,1.57 mg/L,3.94 mg/L,0.74 mg/L,1.76 mg/L,1 mg/L,3.42 mg/L,1.36 mg/L,IC90 [10]: 4.28 mg/L; IC50 [11]: 2.71 mg/L; IC90 [11]: 3.88 mg/L; IC50 [12]: 1.44 mg/L; IC90 [12]: 3.9 mg/L; IC50 [13]: 1.63 mg/L; IC90 [13]: 4.5 mg/L; IC50 [14]: 1.92 mg/L; IC90 [14]: 3.94 mg/L; IC50 [15]: 3.18 mg/L; IC90 [15]: 10.2 mg/L; IC50 [16]: 0.28 mg/L; IC90 [16]: 0.92 mg/L; IC50 [17]: 0.42 mg/L; IC90 [17]: 2.65 mg/L
